Data from ChEMBL document CHEMBL1201862, “PubChem BioAssay data set” (2004).
Active and inactive are the calls of the source.

Columns and labels:
[1] = biological target: T1, Oxysterols receptor LXR-beta (Homo sapiens, UniProt P55055); type: functional, cell-based;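 further: agonist activity at LXR measured by a cell-based luminescence readout across a dose range, run as a counterscreen for daf-12 agonists; HEK293 cells with Gal4-LXR fusion and GAL4-driven luciferase reporter; potency for activation of Gal4-LXR reporter so compounds are agonists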
T1 sequence (P55055 whole entry): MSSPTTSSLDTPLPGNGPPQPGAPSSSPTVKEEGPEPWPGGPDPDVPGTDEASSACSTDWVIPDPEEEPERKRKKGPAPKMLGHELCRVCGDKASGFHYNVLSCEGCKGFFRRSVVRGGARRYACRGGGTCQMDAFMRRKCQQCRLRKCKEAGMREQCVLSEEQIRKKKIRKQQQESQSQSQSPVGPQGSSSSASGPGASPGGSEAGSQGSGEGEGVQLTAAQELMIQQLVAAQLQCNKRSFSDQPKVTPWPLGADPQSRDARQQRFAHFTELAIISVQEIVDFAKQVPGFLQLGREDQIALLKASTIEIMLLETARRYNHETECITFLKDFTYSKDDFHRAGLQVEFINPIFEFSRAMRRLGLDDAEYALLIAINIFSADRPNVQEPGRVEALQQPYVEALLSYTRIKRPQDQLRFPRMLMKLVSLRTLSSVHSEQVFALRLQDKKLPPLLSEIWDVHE

Protein Wnt-3a = Protein Wnt-3a (Mus musculus, UniProt P27467); experiment: Wnt3a-driven reporter signaling inhibition, dose response, selectivity assay for Gli-SUFU antagonist project, Wnt-LIGHT cells, luminescence (AID 651570); type: functional; settings: read-out: IC50_Mean;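 further: Wnt-LIGHT reporter cells stimulated with conditioned medium from Wnt3a-producing cells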
[2] = HepG2 cell cytotoxicity, dose response, cytotoxicity control for Shn3 inhibitor project, CellTiter-Glo, cherry-picked (AID 624134); type: functional, cell-based
[3] = biological target: T2, COUP transcription factor 2 (Homo sapiens, UniProt P24468); experiment: Luminescence-based cell-based high throughput dose response assay to identify inhibitors of COUP-TFII (NR2F2).; type: functional;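 further: HEK293 cells transiently cotransfected with COUP-TFII expression vector and reporter; luciferase reporter luminescence driven by COUP-TFII from the pX2-168 reporter plasmid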
T2 sequence (P24468 whole entry): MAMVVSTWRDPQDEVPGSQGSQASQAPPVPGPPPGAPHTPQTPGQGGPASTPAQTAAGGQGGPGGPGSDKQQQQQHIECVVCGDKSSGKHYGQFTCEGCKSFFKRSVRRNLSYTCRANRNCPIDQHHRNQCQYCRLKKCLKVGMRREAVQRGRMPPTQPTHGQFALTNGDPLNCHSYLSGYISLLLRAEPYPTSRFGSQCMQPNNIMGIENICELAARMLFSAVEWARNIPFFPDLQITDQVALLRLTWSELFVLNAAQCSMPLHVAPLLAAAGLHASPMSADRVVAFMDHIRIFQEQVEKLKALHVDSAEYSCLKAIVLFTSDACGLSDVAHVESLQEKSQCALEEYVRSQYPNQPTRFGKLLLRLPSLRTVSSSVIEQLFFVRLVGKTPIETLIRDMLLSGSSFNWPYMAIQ

[4] = Shn3 3'UTR reporter inhibitors, dose response, cell-based, Clone20 osteoblasts, firefly luciferase, cherry-picked (AID 624132); type: functional;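 further: firefly luciferase luminescence from reporter carrying the Shn3 3'UTR in osteoblasts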
fMet-Leu-Phe receptor = biological target: T3, fMet-Leu-Phe receptor (Homo sapiens, UniProt P21462); experiment: FPR ligands, dose response (AID 519); type: functional
T3 sequence (P21462 whole entry): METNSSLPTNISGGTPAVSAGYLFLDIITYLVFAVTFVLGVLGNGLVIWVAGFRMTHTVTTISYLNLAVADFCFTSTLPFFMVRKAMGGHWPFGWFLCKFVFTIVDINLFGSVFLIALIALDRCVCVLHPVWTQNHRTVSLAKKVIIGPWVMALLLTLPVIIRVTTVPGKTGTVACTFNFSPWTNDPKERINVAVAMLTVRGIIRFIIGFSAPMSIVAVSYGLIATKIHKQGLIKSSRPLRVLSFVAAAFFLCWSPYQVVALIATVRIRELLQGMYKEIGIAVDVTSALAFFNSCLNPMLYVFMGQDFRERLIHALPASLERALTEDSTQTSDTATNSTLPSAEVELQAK

[5] = biological target: T4, Long-chain-fatty-acid--AMP ligase FadD28 (Mycobacterium tuberculosis, UniProt P9WQ59); experiment: Fluorescence polarization aasay to screen for inhibitors that compete for the binding of FadD28 to a bisubstrate Measured in Biochemical System Using Plate Reader - 2147-01_Inhibitor_Dose_CherryPick_Activity.; type: functional, Mycobacterium tuberculosis H37Rv
T4 sequence (P9WQ59 whole entry): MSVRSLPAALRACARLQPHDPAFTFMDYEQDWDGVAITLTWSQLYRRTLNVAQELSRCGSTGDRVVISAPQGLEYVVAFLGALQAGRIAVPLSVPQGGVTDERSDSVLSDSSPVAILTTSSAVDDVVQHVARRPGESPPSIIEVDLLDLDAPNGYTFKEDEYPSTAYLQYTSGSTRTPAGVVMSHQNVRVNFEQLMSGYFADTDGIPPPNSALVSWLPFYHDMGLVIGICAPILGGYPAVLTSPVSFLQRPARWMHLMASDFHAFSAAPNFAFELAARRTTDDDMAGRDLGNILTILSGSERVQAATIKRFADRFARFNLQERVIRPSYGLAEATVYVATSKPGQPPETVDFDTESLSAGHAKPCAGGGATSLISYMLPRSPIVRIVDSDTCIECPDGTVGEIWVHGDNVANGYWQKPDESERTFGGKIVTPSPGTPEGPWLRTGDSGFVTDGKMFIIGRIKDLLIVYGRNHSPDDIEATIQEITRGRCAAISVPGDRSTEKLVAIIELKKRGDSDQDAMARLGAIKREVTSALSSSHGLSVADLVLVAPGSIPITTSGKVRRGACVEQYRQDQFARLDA

[6] = LGR2 antagonists, dose response, cell-based, HEK293, CRE-luciferase reporter, cherry pick, set 2 (AID 743343); type: functional;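 further: transfected cells were stimulated with diluted bursicon conditioned medium after compound addition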
[7] = A549 cell cytotoxicity, dose response, cytotoxicity control, plate reader, cherry-pick, antagonist series (AID 743412); type: functional, cell-based
[8] = MC4R antagonists, dose response, counter-screen for LGR2 antagonist project, cell-based, plate reader, cherry pick (AID 743444); type: functional;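 further: transfected HEK 293 cells stimulated with alpha-MSH peptide; potency of inhibitors of the alpha-MSH evoked signal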
[9] = HEK293 cell cytotoxicity, dose response, cytotoxicity control, plate reader, cherry-picked samples (AID 743446); type: functional, cell-based
[10] = non-specific cell cytotoxicity, dose response, cytotoxicity control for PAX8 inhibitor project, plate reader, dry powder samples (AID 743021); type: functional, cell-based
[11] = inhibitors of firefly luciferase expression or activity, dose response, H4 neuroglioma cells, luminescence (AID 1990); type: functional, cell-based
[12] = Luminescence Cell-Based Dose Response HTS to Identify Inhibitors of 5'UTR Stem-Loop Driven Prion Protein mRNA Translation in H4 Neuroglioblastoma Cells. [Related pubchem assays: 1827 (Project Summary), 1813 (Primary HTS)]; type: functional
Paired box protein Pax-8 = Paired box protein Pax-8 (Homo sapiens, UniProt Q06710); experiment: inhibitors of PAX8-driven TPO luciferase reporter, dose response, RMG-I cells, cherry-pick (AID 687027); type: functional, cell-based;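 further: luciferase reporter driven by Pax8 target thyroperoxidase promoter measured by SteadyGlo luminescence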
[13] = inhibitors of SNCA 5'UTR-driven reporter translation, confirmation, H4 neuroglioma cells, luminescence (AID 1988); type: functional, cell-based
[14] = biological target: T5, Ubiquitin-conjugating enzyme E2 N (Homo sapiens, UniProt P61088); type: functional;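 further: Dose-response confirmation in a TR-FRET assay detecting UBC13-driven polyubiquitin chain formation, inhibition measured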
T5 sequence (P61088 whole entry): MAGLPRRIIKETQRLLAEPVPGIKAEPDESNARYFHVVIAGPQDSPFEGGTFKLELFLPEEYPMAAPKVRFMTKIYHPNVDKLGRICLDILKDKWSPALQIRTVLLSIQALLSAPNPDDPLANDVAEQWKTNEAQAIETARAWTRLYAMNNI

Protein Wnt-3a, sequence (P27467 whole entry): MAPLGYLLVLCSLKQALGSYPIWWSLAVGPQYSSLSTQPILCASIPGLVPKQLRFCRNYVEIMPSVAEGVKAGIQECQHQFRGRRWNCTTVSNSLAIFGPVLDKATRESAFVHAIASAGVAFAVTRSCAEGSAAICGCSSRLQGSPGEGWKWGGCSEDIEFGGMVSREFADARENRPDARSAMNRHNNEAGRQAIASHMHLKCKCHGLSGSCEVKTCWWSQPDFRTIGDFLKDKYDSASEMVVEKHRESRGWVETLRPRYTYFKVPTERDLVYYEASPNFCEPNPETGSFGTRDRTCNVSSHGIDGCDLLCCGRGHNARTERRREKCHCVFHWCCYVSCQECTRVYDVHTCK
Paired box protein Pax-8, sequence (Q06710 whole entry): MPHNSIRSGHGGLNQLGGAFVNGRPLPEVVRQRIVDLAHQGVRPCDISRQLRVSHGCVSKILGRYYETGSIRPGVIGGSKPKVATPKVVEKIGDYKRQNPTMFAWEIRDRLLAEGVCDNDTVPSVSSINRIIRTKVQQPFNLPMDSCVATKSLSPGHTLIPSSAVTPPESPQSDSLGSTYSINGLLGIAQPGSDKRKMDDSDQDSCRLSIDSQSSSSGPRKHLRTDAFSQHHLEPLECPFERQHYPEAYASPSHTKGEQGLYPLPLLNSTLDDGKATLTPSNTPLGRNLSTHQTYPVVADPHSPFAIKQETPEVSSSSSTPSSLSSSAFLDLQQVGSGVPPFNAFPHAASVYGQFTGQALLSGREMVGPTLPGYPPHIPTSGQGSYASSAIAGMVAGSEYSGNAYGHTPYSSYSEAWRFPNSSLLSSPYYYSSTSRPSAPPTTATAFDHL

CC(=Nc1ccc(Cl)cc1N)c1c(O)cc(C)oc1=O
EC50 [1]: > 67.6 µM (inactive)

c1ccc(CCSc2nccn2-c2ccccc2)cc1
EC50 [1]: > 67.6 µM (inactive)

CC(=O)c1cccc(NS(=O)(=O)c2ccc(-c3cnc(C4CC4)o3)cc2)c1
IC50 (Protein Wnt-3a): 6.03 µM (active) | AC50 [2]: 47.3 µM (active) | IC50 [3]: 12.3 µM (inactive) | AC50 [4]: 5 µM (active)

COC(=O)c1[nH]c(C)c(C(=O)C2=C(O)C(=O)N(CCN3CCOCC3)C2c2cccnc2)c1C (centres undefined)
Ki (fMet-Leu-Phe receptor): 20.8 µM (inactive)

O=C(N/N=C/c1c[nH]c2ccccc12)c1cc(Cl)ccc1O
AC50 [5]: 9.8 µM (active)

O=C(C1=C(O)C(=O)N(c2ncccn2)C1c1ccc(Cl)c(Cl)c1)c1ccco1 (centres undefined)
Ki (fMet-Leu-Phe receptor): > 66.7 µM (inactive)

Cc1cccc(-c2ccc([C@H]3[C@@H](CO)N4CCCCN(C(=O)c5ccncc5)C[C@@H]34)cc2)c1
AC50 [6]: 8.82 µM (active) | AC50 [7]: > 52 µM (inactive) | AC50 [8]: 9.6 µM (active) | AC50 [9]: > 52 µM (inactive)

CCC[C@H](CN[C@@H](CNC)[C@H](C)CC)NCCc1cc(C(F)(F)F)cc(C(F)(F)F)c1
AC50 [10]: 22.1 µM (active) | EC50 [11]: 8.3 µM (active) | EC50 [12]: 9.67 µM (active) | AC50 (Paired box protein Pax-8): 9.95 µM (active) | EC50 [13]: 7.09 µM (active) | IC50 [14]: > 20 µM (inactive)
